This note sets out measurements from ChEMBL document CHEMBL3397034, “Environmentally benign synthesis, molecular properties prediction and anti-inflammatory activity of novel isoxazolo[5,4-d]isoxazol-3-yl-aryl-methanones via vinylogous Henry nitroaldol adducts as synthons” (2015).

Holding throughout (assay type): functional
The test system of assay [1] is Rattus norvegicus. Nature of the assay: Anti-inflammatory activity in Wistar rat assessed as reduction in carrageenan induced paw edema by measuring paw volume as ml of Hg at 100 mg/kg, po administered 30 mins before carrageenan challenge measured 2 hrs post carrageenan challenge (reference value: 0.36 +/- 0.3 ml of Hg).
Assay [2] concerns Rattus norvegicus. The experiment in a line: Anti-inflammatory activity in Wistar rat assessed as reduction in carrageenan induced paw edema by measuring paw volume as ml of Hg at 100 mg/kg, po administered 30 mins before carrageenan challenge measured 4 hrs post carrageenan challenge (reference value: 0.36 +/- 0.3 ml of Hg).
The subject of assay [3] is Rattus norvegicus. Nature of the assay: Anti-inflammatory activity in Wistar rat assessed as reduction in carrageenan induced paw edema by measuring paw volume as ml of Hg at 100 mg/kg, po administered 30 mins before carrageenan challenge measured 1 hr post carrageenan challenge (reference value: 0.36 +/- 0.3 ml of Hg). (In general: In the carrageenan paw model, swelling and tenderness develop within hours.)

For assay [4], the system named is Rattus norvegicus. Nature of the assay: Anti-inflammatory activity in Wistar rat assessed as reduction in carrageenan induced paw edema by measuring paw volume as ml of Hg at 100 mg/kg, po administered 30 mins before carrageenan challenge measured 6 hrs post carrageenan challenge (reference value: 0.36 +/- 0.3 ml of Hg).

SMILES strings stand for the structures.

In the case of `Cc1noc2c(C(=O)c3ccccc3)noc12`, the Activity in assay [1] is 0.86 mL; in assay [2], 0.82 mL; in assay [3], 0.8 mL; in assay [4] it was 0.63 mL.
For the molecule `Cc1noc2c(C(=O)c3ccccc3[N+](=O)[O-])noc12`, the Activity was found to be 0.83 mL in assay [1], 0.81 mL in assay [2], 0.75 mL in assay [3] and 0.63 mL in assay [4].
For `Cc1noc2c(C(=O)c3ccccc3O)noc12`, in that order: 0.93 mL, 0.8 mL, 0.82 mL and 0.61 mL.
With `COc1ccc(C(=O)c2noc3c(C)noc23)cc1`, the Activity was 0.7 mL in assay [1], 0.83 mL in assay [2], 0.78 mL in assay [3] and 0.62 mL in assay [4].
Take `Cc1noc2c(C(=O)c3ccccc3Cl)noc12`: the Activity in assay [1] was 0.68 mL; in assay [2], 0.51 mL; in assay [3], 0.51 mL; in assay [4], 0.5 mL.
On to `Cc1noc2c(C(=O)c3ccc(N(C)C)cc3)noc12`, for which the Activity in assay [1] worked out at 0.83 mL; in assay [2], 0.63 mL; in assay [3] it was 0.78 mL; in assay [4], 0.55 mL.
Regarding `Cc1noc2c(C(=O)c3ccccc3Br)noc12`, the Activity in assay [1] was determined as 0.68 mL; in assay [2], 0.65 mL; in assay [3] it was 0.5 mL; in assay [4] it was 0.51 mL.
In the case of `Cc1noc2c(C(=O)c3ccc(Cl)cc3)noc12`, the Activity amounted to 0.65 mL in assay [1], 0.67 mL in assay [2], 0.53 mL in assay [3] and 0.41 mL in assay [4].
As to `Cc1noc2c(C(=O)c3ccc(Br)cc3)noc12`, the Activity stood at 0.69 mL in assay [1], 0.54 mL in assay [2], 0.52 mL in assay [3] and 0.32 mL in assay [4].
